Assay [1] deals with JAK3 enzyme (Homo sapiens (Human), UniProt P52333). Briefly: JAK3 isolated enzyme high ATP Caliper endpoint assay. Conditions: 400 μM ATP, read-out: JAK-3 IC50. The class given is biochemical.
Protocol: JAK3 Isolated Enzyme High ATP Caliper Endpoint Assay
4 mM stock solutions of test compounds are prepared and serially diluted in 100% DMSO. […] Greiner 384 well plates are prepared containing 400 nl of serially diluted compound, standard and HPE/ZPE. Final top assay concentration is 80 μM as the assay dilution factor is fifty.
JAK3 enzyme stock is diluted to 2 nM in assay buffer (10 mM HEPES free acid pH 7.5, 10 mM HEPES free base pH 7.5, 10 mM MgCL2, 0.0005% Tween-20, 0.01% BSA) containing 2 mM DTT (all supplied by Sigma). ATP is made up at 10 mM stock in sterile water and diluted to 800 μM in assay buffer. Peptide (American peptide company) is made up at 30 mM in 100% DMSO and diluted to 3 μM in assay buffer.
Assays are performed in Greiner polypropylene 384 well plates. Following compound preparation within the plate 10 μl of enzyme in assay buffer containing DTT is added using a Multidrop Micro. Final assay concentration of enzyme is 1 nM. Compound and enzyme are pre-incubated for 60 minutes at room temperature using low evaporation lids before addition of 10 μl ATP/peptide mixture in assay buffer using a Multidrop Micro. […] Plates are foil sealed and incubated for a further 60 minutes at room temperature. Stop solution is added to the plates (20 μl/well) using a Multidrop Micro and plates are loaded onto the Caliper EZReader II. Data is generated by the shift in mobility of non-phosphorylated peptide substrates and phosphorylated products by electrophoresis within a chip and detected via LED induced fluorescence. Data is analysed using LabChip EZReader software which calculates the relative heights of the substrate and product peaks and reports product/product plus substrate peak ratio. Test compound data are subsequently expressed as percentage inhibition defined by HPE and ZPE values for each plate. Percentage inhibition in the presence of test compound is plotted against compound concentration on a log scale to determine an IC50 from the resultant sigmoid curve.
Assay [2] relates to JAK1/3. The assay is described as follows: JAK1/3 whole cell reporter gene assay (IL-4 stimulated STAT6-beta-lactamase reporter). The settings on record: Cellsensor STAT6-bla-RA-1 cell line, CD40 ligand and IL-4 stimulated. Type of assay: cell-based.
Protocol: JAK1/3 Whole Cell Reporter Gene Assay
4 mM stock solutions of test compounds are prepared and serially diluted in 100% DMSO. A standard curve using PF-00956980 at a top concentration of 10 mM is also prepared. High percentage effect (HPE) is defined by 10 mM PF-00956980 and 0% effect (ZPE) is defined by 100% DMSO. Plates containing 1 μl of serially diluted compound, standard and HPE/ZPE are diluted by addition of 39 μl assay media (Optimem with 100 uM NEAA, 10 uM sodium pyruvate and 100 U penicillin/100 ug streptomycin (Invitrogen)) using a Multidrop Combi. This dilutes test compounds to a top concentration of 100 μM. Final top assay concentration is 10 μM as the assay dilution factor is ten. Final DMSO concentration is 0.25%.
CD40 (Invitrogen) is prepared at 0.1 mg/ml in PBS minus Ca^2+, minus Mg^2+. The concentration of CD40 required for activation is predetermined by CD40 titration with the cell line. […]
Assays are performed in Greiner 384 well black polypropylene clear bottomed plates. The Invitrogen Cellsensor STATE-bla-RA-1 cell line is thawed, counted and resuspended at 1.88×10^6 cells/ml. […] Beta lactamase fluorescence signal is read at 460 nm (blue) and 530 nm (green) and a ratio calculated using an Envision. Test compound data are expressed as percentage inhibition defined by HPE and ZPE values for each plate. […]
Assay [3] addresses JAK2 (Homo sapiens (Human), UniProt O60674). Briefly: JAK2 PathHunter assay (prolactin response, U2OS cell line). The class given is cell-based. The settings on record: PathHunter U2OS cell line expressing JAK2, prolactin challenge; read-out: JAK-2 IC50. How it is done:
JAK1 and JAK2 PathHunter Assay
4 mM stock solutions of test compounds are prepared and serially diluted in 100% DMSO. A standard curve using PF-00956980 at a top concentration of 10 mM is also prepared. High percentage effect (HPE) is defined by 10 mM PF-00956980 and 0% effect (ZPE) is defined by 100% DMSO. Plates containing 1 μl of serially diluted compound, standard and HPE/ZPE are diluted by addition of 65 μl compound diluent (PBS minus Ca^2+, minus Mg^2+ with 0.05% pluronic F127) using a Multidrop Combi. This dilutes test compounds to a top concentration of 60 μM. Final top assay concentration is 10 μM as the assay dilution factor is six. Final DMSO concentration is 0.25%.
Prolactin (Peprotech) is used for the agonist challenge. Prolactin is prepared at 40 μM in compound diluent to generate a stock solution and further diluted to 6 μM in compound diluent. A standard curve is prepared in compound diluent. Prolactin is also diluted to a concentration of 15 nM (2.5 nM fac). Antagonism of the JAK1 or JAK2 prolactin response is measured in the presence of prolactin at an approximate […], concentration for JAK1 and approximately EC100 for JAK2. […]
Assays are performed in Greiner white 384 well plates. […] Luminescence signal is read using an Envision. Test compound data are expressed as percentage inhibition defined by HPE and ZPE values for each plate. […]

Assay [4] relates to IFNγ production in human isolated PBMC. Briefly: hrIL2/haCD3 stimulated IFNγ production in human isolated PBMC. The class given is cell-based. Conditions: IL-2/aCD3 stimulated IFNγ, 18 h. How it is done:
Functional Assessment of JAK Inhibitory Potency Using hrIL-2 and haCD3 stimuated IFNγ Production in Human Isolated PBMC.
(§1) Isolation of human Peripheral Blood Mononuclear Cells (PBMC)
Peripheral venous blood from healthy volunteers of either sex was collected into 50 ml centrifuge tubes (Corning) containing 1 ml of 5 mg/ml heparin (Sigma H3400) in distilled water. The heparininsed blood was diluted using an equal volume of sterile Dulbeccos phosphate buffered saline (PBS: Invitrogen 14190) before decanting into 50 ml Leucosep tubes (Sigma A0561). […]
180 μl of PBMC cell suspension was added to each well of a sterile 96 well, flat bottomed plate (Corning-Costar 3598). […] 100 μl supernatent was collected, diluted 1:4 and IFNγ content determined using a commercially available IFNγ ELISA kit (Invitrogen CHC1233) as per the manufacturer's instructions. Absorbances were measured using a Spectramax 190/250 plate reader (Molecular Devices). The IFNγ concentration of test wells was expressed as % of the IFNγ concentration produced in wells exposed to IL-2/aCD3 in the absence of test compound, and IC50 values determined using a 4 parameter curve fit.

Assay [5] deals with pYSTAT5 in PBMC lymphocytes. Briefly: hrIL2/haCD3 stimulated pYSTAT5 in PBMC lymphocytes. Type of assay: cell-based. Conditions: rhIL2 stimulated pYSTAT5, human PBMC lymphocytes. As for the experimental part:
as §1
Peripheral venous blood from healthy volunteers of either sex was collected into 50 ml centrifuge tubes (Corning) containing 1 ml of 5 mg/ml heparin (Sigma H3400) in distilled water. The heparininsed blood was diluted using an equal volume of sterile Dulbeccos phosphate buffered saline (PBS: Invitrogen 14190) before decanting into 50 ml Leucosep tubes (Sigma A0561). The Leucosep tubes were centrifuged at 400 g for 30 min at room temperature and the buffycoat at the Ficoll:Plamsa interface collected into clean centrifuge tubes and the volum made up to 50 ml using PBS and centrifuging at 200 g for 10 min at room temperature. The supernatent was discarded and the pellet resuspended in assay media (Dulbeccos Modified Essential Medium (DMEM: Invitrogen 11971025) containing 5% Foetal Bovine Serum, 100 U/mIpenicilin/100 μg/ml streptomycin (Sigma P4458) at 2×10^6 lymphocytes per ml for IFNγ experiments and at 1×10^6 lymphocytes per ml for the pYSTAT5 experiments.
hrIL2/haCD3 Stimulated pYSTAT5 in PBMC Lymphocytes
90 μl of PBMC cell suspension was added to each well of a 96 well plate (Corning-Costar 3598) along with 10 μl of test compound dilution giving a final assay concentration range of 0.03 nM to 1 μM in half log increments. […] Plates were read the next day on a FACS Canto (Becton Dickinson). […]

Assay [6] relates to pYSTAT5 in PBMC lymphocytes. The assay is described as follows: Duration of action (DoA) after washout, pYSTAT5 in PBMC lymphocytes. The class given is cell-based, human. Conditions: incubated at approximate IC80 for 1 h, then washed. How it is done:
90 μl of PBMC cell suspension was added to each well of a 96 well plate (Corning-Costar 3598) along with 10 μl of test compound dilution giving a final assay concentration range of 0.03 nM to 1 μM in half log increments. The plates were incuated at 37° C., in […] for 1 h before 10 μl rhIL2 (3 μg/ml final assay concentration) was added to appropriate wells and the plates incubated at the stated conditions for a further 15 min. 25 μl of 20% formaldehyde (Tousimis) was added to all wells and the plates left at room temperature for 10 min prior to centrifugation at 400 g for 4 min at room temperature. 200 μl PBS was added to each well and centrifugation repeated as just described. The supernatent was removed and 50 μl of a 1:50 dilution of Mouse anti-human CD3 (BD Biosciences 555329) in 0.1% BSA (Sigma A7906)/PBS added to each well (excluding control wells) and the plates incubated at room temperature in the dark for 30 min. […] Plates were read the next day on a FACS Canto (Becton Dickinson). […]
For determination of compound duration of action (DoA) cells were incubated with compound at an approximate IC80 concentration for 1 h before being washed by cenrifugation and resuspension in assay media without compound. […] DoA was calculated as the time taken for the inhibition to reverse by 50% (T50%)

Assay [7] deals with JAK1 enzyme (Homo sapiens (Human), UniProt P23458). Briefly: JAK1 isolated enzyme high ATP Caliper endpoint assay.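 Also: enzyme at 10 nM preincubated with inhibitor 30 min, then kinase reaction 120 min at room temperature, peptide phosphorylation read by microfluidic mobility shift with fluorescence, inhibition relative to HPE and ZPE plate controls.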 The class given is biochemical. Conditions: 2.5 mM ATP, read-out: JAK-1 IC50.
Protocol: JAK1 Isolated Enzyme High ATP Caliper Endpoint Assay
4 mM stock solutions of test compounds are prepared and serially diluted in 100% DMSO. A standard curve using PF-00956980 (commercially available from Sigma Aldrich) at a top concentration of 4 mM is also prepared. High percentage effect (HPE) is defined by 500 μM PF-00956980 and 0% effect (ZPE) is defined by 100% DMSO. Greiner 384 well plates are prepared containing 400 nl of serially diluted compound, standard and HPE/ZPE. Final top assay concentration is 80 μM as the assay dilution factor is fifty.
JAK1 enzyme (Invitrogen) stock solution is made up at 5.2 μM in sterile water. JAK1 enzyme stock is diluted to 20 nM in assay buffer (10 mM HEPES free acid pH 7.5, 10 mM HEPES free base pH 7.5, 10 mM MgCL2, 0.0005% Tween-20, 0.01% BSA) containing 2 mM DTT (all supplied by Sigma) with the addition of one protease tablet per 25 mls buffer (Roche). ATP is made up at 10 mM stock in sterile water and diluted to 5 mM in assay buffer. Peptide H236 (Caliper Life Sciences) is made up at 1.5 mM in 100% DMSO and diluted to 3 μM in assay buffer. Stop buffer comprises 140 mM HEPES, 22.5 mM EDTA (Sigma) and 0.15% coating reagent (Caliper Life Sciences).
Assays are performed in Greiner polypropylene 384 well plates. Following compound preparation within the plate 10 μl of enzyme in assay buffer containing DTT is added using a Multidrop Micro. Final assay concentration of enzyme is 10 nM. Compound and enzyme are pre-incubated for 30 minutes at room temperature using low evaporation lids before addition of 10 μl ATP/peptide mixture in assay buffer using a Multidrop Micro. Final assay concentrations are 2.5 mM ATP and 1.5 μM peptide. Plates are foil sealed and incubated for a further 120 minutes at room temperature. Stop solution is added to the plates (20 μl/well) using a Multidrop Micro and plates are loaded onto the Caliper EZReader II. Data is generated by the shift in mobility of non-phosphorylated peptide substrates and phosphorylated products by electrophoresis within a chip and detected via LED induced fluorescence. Data is analysed using LabChip EZReader software which calculates the relative heights of the substrate and product peaks and reports product/product plus substrate peak ratio. Test compound data are subsequently expressed as percentage inhibition defined by HPE and ZPE values for each plate. Percentage inhibition in the presence of test compound is plotted against compound concentration on a log scale to determine an IC50 from the resultant sigmoid curve.

Here are results for two molecules from patent US8895544B2, “Indazoles” (Pfizer Limited, priority 2011, dated 2014).

Where a name gives a salt, the structure may show the parent alone.

Sequence of JAK3 enzyme (P52333 whole entry): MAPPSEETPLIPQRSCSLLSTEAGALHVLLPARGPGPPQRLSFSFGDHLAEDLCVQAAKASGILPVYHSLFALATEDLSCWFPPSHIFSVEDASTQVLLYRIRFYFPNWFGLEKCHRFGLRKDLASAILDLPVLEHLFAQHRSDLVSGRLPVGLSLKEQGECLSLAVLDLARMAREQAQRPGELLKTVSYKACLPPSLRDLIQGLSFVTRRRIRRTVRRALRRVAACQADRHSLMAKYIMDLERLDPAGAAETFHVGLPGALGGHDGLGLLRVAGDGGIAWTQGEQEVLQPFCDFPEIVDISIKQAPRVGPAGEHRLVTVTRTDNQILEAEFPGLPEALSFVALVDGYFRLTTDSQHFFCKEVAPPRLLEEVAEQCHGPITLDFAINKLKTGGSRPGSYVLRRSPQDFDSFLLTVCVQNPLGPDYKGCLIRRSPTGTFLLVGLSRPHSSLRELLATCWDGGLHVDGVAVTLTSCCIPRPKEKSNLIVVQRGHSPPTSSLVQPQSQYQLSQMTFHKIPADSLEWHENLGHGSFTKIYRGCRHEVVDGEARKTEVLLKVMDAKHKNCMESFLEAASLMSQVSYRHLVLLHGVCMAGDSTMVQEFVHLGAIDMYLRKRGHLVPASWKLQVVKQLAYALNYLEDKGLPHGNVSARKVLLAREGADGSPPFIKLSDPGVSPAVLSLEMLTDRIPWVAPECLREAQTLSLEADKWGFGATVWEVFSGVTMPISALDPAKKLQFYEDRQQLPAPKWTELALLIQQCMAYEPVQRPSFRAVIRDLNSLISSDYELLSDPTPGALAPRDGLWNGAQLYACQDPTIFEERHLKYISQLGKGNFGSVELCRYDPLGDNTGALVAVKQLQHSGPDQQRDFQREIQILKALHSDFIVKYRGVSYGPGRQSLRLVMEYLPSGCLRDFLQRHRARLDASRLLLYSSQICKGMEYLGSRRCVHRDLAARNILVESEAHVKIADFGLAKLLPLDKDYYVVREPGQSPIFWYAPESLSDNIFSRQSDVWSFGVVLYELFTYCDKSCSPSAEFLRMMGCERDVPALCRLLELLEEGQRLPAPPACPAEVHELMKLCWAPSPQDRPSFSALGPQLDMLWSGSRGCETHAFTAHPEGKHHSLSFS
Sequence of JAK1 enzyme (P23458 whole entry): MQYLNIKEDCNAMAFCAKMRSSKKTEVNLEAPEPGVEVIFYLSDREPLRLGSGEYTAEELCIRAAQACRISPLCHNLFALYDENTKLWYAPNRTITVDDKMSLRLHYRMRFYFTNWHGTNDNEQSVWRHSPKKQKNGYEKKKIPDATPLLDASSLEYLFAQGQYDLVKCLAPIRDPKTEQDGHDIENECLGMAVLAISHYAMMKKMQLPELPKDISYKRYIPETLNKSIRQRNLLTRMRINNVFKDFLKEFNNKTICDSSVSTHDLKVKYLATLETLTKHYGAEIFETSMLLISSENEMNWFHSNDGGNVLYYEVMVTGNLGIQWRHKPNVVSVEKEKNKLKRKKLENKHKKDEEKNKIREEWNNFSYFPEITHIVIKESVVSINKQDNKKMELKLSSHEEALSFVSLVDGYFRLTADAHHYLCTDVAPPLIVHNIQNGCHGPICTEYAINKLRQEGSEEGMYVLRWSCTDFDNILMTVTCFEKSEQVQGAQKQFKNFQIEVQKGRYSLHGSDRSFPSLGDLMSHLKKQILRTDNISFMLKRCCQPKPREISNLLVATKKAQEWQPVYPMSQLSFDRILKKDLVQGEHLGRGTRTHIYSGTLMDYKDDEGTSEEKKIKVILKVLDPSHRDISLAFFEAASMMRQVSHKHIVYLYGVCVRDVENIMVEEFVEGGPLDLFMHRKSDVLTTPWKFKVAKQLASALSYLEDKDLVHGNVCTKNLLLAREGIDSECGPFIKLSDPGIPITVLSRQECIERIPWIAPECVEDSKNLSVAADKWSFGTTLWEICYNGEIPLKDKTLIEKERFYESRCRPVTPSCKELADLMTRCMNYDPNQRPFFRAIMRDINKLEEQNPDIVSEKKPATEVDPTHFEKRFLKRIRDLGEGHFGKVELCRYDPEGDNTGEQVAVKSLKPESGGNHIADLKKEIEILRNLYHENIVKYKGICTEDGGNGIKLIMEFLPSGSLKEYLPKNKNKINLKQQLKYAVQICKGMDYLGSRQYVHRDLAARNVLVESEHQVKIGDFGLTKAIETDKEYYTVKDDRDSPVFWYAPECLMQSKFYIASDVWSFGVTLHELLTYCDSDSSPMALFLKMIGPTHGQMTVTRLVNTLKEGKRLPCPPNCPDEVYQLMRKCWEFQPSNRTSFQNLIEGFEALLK
Sequence of JAK2 (O60674 whole entry): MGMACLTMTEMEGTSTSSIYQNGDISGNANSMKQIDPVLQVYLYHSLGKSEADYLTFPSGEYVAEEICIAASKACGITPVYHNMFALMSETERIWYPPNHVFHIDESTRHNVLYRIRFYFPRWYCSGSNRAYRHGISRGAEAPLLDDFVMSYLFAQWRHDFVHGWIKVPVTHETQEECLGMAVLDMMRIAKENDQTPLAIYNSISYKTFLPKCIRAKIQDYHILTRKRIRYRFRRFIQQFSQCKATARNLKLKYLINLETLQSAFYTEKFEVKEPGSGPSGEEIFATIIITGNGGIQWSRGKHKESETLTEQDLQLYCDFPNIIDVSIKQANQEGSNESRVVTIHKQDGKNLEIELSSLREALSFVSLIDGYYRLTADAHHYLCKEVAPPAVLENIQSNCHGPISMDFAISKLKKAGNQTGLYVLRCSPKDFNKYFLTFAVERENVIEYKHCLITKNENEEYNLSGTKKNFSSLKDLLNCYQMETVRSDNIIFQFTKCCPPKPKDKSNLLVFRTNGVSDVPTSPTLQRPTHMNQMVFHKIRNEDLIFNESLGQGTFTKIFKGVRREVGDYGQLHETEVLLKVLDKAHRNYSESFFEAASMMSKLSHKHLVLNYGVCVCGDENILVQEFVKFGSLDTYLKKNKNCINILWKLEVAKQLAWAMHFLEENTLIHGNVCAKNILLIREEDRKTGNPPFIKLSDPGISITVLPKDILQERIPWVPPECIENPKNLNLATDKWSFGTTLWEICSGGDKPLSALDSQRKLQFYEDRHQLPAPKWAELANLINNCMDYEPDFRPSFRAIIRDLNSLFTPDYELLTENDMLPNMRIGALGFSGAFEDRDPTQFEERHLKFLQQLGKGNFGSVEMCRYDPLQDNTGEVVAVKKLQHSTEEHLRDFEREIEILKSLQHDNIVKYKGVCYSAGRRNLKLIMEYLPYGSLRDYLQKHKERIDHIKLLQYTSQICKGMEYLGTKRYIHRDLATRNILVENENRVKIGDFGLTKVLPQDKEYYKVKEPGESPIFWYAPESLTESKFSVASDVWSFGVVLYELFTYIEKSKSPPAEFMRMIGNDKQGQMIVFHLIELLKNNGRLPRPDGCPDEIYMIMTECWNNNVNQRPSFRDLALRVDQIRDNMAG

`CCc1cc(O)c(F)cc1-c1ccc2c(-c3nc4c([nH]3)CCN(C(=O)c3cnc(N5CCCCC5)cn3)C4)n[nH]c2c1` [Example 4, {2-[6-(2-Ethyl-5-fluoro-4-hydroxy-phenyl)-1H-indazol-3-yl]-1,4,6,7-tetrahydro-imidazo[4,5-c]pyridin-5-yl}-(5-piperidin-1-yl-pyrazin-2-yl)-methanone]: the IC50 in assay [1] amounted to 0.5 nM; in assay [2], 140 nM; in assay [3] it was 176 nM; in assay [4], 70 nM; in assay [5], 45 nM. In assay [6], the “DoA (time taken for the inhibition to reverse by 50%, T50%)” value was over 8.8 h.

On to `Oc1cc(CC(F)(F)F)c(-c2ccc3c(-c4nc5c([nH]4)CCN(Cc4ccccc4)C5)n[nH]c3c2)cc1F` [Example 31, 4-[3-(5-Benzyl-4,5,6,7-tetrahydro-1H-imidazo[4,5-c]pyridin-2-yl)-1H-indazol-6-yl]-2-fluoro-5-(2,2,2-trifluoro-ethyl)-phenol diethylamine salt], for which the IC50 in assay [1] was found to be 186 nM; in assay [7], 66 nM.
